EC50 data for ten molecules are collected here from patent publication US8895578B2, “Carboxamide, sulfonamide and amine compounds and methods for using the same” (Rigel Pharmaceuticals, Inc., priority 2007, dated 2014).

Structures are written as SMILES. A value given as a limit tells only on which side of the number the result lay.

The first experiment concerns the target AMPK. The experiment can be described thus: AMPK activation, enzyme-linked immunosorbent assay. It counts as biochemical. The following applies: Table 3, ELISA. The protocol: Compounds 1-54 were assayed for their ability to activate AMPK using an enzyme-linked immunosorbent assay.
Compounds 55-62 of Table 1 were assayed for their ability to activate AMPK using an enzyme-linked immunosorbent assay.
Compounds 63-66 of Table 1 were assayed for their ability to activate AMPK using an enzyme-linked immunosorbent assay.
Compounds 67-71 of Table 1 were assayed for their ability to activate AMPK using an enzyme-linked immunosorbent assay.
Compound 72 of Table 1 was assayed for its ability to activate AMPK using an enzyme-linked immunosorbent assay.
As for `N#Cc1ccc(CN2CCC(NC(=O)c3ccc(CN4CCN(Cc5ccccc5)CC4)cc3)CC2)cc1` [Compound 61, 4-((4-benzylpiperazin-1-yl)methyl)-N-(1-(4-cyanobenzyl)piperidin-4-yl)benzamide], the EC50 was below 100 nM.

As to `O=C(NC1CCN(Cc2ccc(C(F)(F)F)cc2)CC1)c1ccc(CN2CCN(Cc3ccccc3)CC2)cc1` [Compound 62, 4-((4-benzylpiperazin-1-yl)methyl)-N-(1-(4-trifluoromethylbenzyl)piperidin-4-yl) benzamide], the EC50 is below 100 nM.

Still in this experiment, the particulars now being: Table 4, ELISA.
Molecule `O=C(NC1CCN(Cc2ccccc2)CC1)c1ccc2cc(OC3CCN(Cc4ccc(C(F)(F)F)cc4)CC3)ccc2c1` [Compound 63, N-(1-benzylpiperidin-4-yl)-6-(1-(4-(trifluoro-methyl)benzyl)piperidin-4-yloxy)-2-naphthamide] registered an EC50 below 500 nM. Turning to `N#Cc1ccc(CN2CCC(Oc3ccc4cc(C(=O)NC5CCN(Cc6ccccc6)CC5)ccc4c3)CC2)cc1` [Compound 64, N-(1-benzylpiperidin-4-yl)-6-(1-(4-cyano-benzyl)piperidin-4-yloxy)-2-naphthamide], the EC50 is below 500 nM. On the same count and under the same terms, then `O=C(NC1CCN(Cc2ccccc2)CC1)c1ccc2cc(OC3CCN(c4ccc(C(F)(F)F)cc4)CC3)ccc2c1` [Compound 65, N-(1-benzylpiperidin-4-yl)-6-(1-(4-(trifluoro-methyl)phenyl)piperidin-4-yloxy)-2-naphthamide], with 1000 to 5000 nM; and `CC(C)(C)OC(=O)N1CCC(NC(=O)c2ccc3ccc(OC4CCN(c5ccc(C(F)(F)F)cc5)CC4)cc3c2)CC1` [Compound 66, tert-butyl 4-(7-(1-(4-(trifluoromethyl)phenyl)piperidin-4-yloxy)-2-naphthamido)piperidine-1-carboxylate], with 1000 to 5000 nM.

The same experiment, now with this note: Table 5, ELISA.
For `CC(C)(C)OC(=O)N1CCC(NC(=O)c2cnc3ccc(OC4CCN(c5ccc(C(F)(F)F)cc5)CC4)cc3c2)CC1` [Compound 67, tert-butyl 4-(6-(1-(4-(trifluoromethyl)phenyl)piperidin-4-yloxy)quinoline-3-carboxamido)piperidine-1-carboxylate], the EC50 fell in the range of 100 to 500 nM.

Take `O=C(NC1CCNCC1)c1cnc2ccc(OC3CCN(c4ccc(C(F)(F)F)cc4)CC3)cc2c1` [Compound 68, N-(piperidin-4-yl)-6-(1-(4-(trifluoromethyl)phenyl)piperidin-4-yloxy) quinoline-3-carboxamide]: the EC50 is above 5000 nM.

Molecule `N#Cc1ccc(CN2CCC(NC(=O)c3cnc4ccc(OC5CCN(c6ccc(C(F)(F)F)cc6)CC5)cc4c3)CC2)cc1` [Compound 69, N-(1-(4-cyanobenzyl)piperidin-4-yl)-6-(1-(4-(trifluoromethyl)phenyl)piperidin-4-yloxy) quinoline-3-carboxamide] returned an EC50 below 100 nM.

Take `O=C(NC1CCN(Cc2ccc(C(F)(F)F)cc2)CC1)c1cnc2ccc(OC3CCN(c4ccc(C(F)(F)F)cc4)CC3)cc2c1` [Compound 70, N-(1-(4-(trifluoromethyl)benzyl)piperidin-4-yl)-6-(1-(4-(trifluoromethyl)phenyl)piperidin-4-yloxy) quinoline-3-carboxamide]: the EC50 is below 100 nM.
